# Measured values from patent US20220298160A1, “COMPOUNDS USEFUL IN HIV THERAPY” (priority 2019, published 2022).
# Where two headings read alike, the source gives them in different places.
# Tests used:
# [1] = test system: HIV pseudotyped virus (NL4-3 provirus), WT; test: PSV assay (pseudotyped virus assay), WT; conditions: U373 cells expressing human CD4 and CXCR4 or CCR5, luciferase signal after 3 days of culture
# Text: A pseudotyped virus assay (PSV) was used to assess the potency of the HIV inhibitor. Replication defective virus was produced by co-transfection of a plasmid containing an NL4-3 provirus [containing a mutation in the envelope open reading frame (ORF) and a luciferase reporter gene replacing the nef ORF] and a CMV-promoter expression plasmid containing an ORF for various HIV gp160 envelope clones. The harvested virus was stored at −80 C in small aliquots and the titer of the virus measured to produce a robust signal for antiviral assays.
# The PSV assay was performed by using U373 cells stably transformed to express human CD4, the primary receptor for HIV entry and either human CXCR4 or human CCR5 which are the co-receptors required for HIV entry as target cells for infection. […] This dose-range was applied to U373 cells and the pre-made pseudotyped virus added. The amount of luciferase signal produced after 3 days of culture was used to reflect the level of pseudotyped virus infection. An IC50, or the concentration of inhibitor required to reduce PSV infection by 50% from the infection containing no inhibitor was calculated. […] IC50 values were determined from a 10 point dose response curve using 3-4-fold serial dilution for each compound, which spans a concentration range >1000 fold.
# [2] = test system: HIV pseudotyped virus (NL4-3 provirus), M184V; format: cell-based; conditions: PSV assay; U373 cells expressing human CD4 and CXCR4 or CCR5; luciferase signal after 3 days of culture
# [3] = Human immunodeficiency virus 1, NL43, in Homo sapiens, 72 h, read-out: WT IC50 (μM), PSV assay
Structure (SMILES),"IC50 [1, 3]",IC50 [2],"IC50 ([1]; read-out: WT IC50, PSV assay)"
"C#C[C@]1(CO)O[C@@H](n2cnc3c(NC(=O)OC(COCCCCCCCCC)COC(=O)CCCCCCCC)nc(F)nc32)C[C@@H]1O (single isomer, unassigned) [Example 35]",0.0112 µM,33.1 nM,–
"C#C[C@]1(CO)O[C@@H](n2cnc3c(NC(=O)OC(COCCCCCCCCC)COC(=O)CCCCCCCC)nc(F)nc32)C[C@@H]1O (single isomer, unassigned) [Example 36]",–,22.9 nM,0.0085 µM
"C#C[C@]1(CO)O[C@@H](n2cnc3c(NC(=O)OC(COCCCCC)COC(=O)CCCC)nc(F)nc32)C[C@@H]1O (single isomer, unassigned) [Example 37]",0.0095 µM,32.4 nM,–
"C#C[C@]1(CO)O[C@@H](n2cnc3c(NC(=O)OC(COCCCCC)COC(=O)CCCC)nc(F)nc32)C[C@@H]1O (single isomer, unassigned) [Example 38]",–,23.4 nM,0.007 µM
"C#C[C@]1(COC(=O)NCCCCCCCCCCCCCCCCCC)O[C@@H](n2cnc3c(N)nc(F)nc32)C[C@@H]1O [Example 1, ((2R,3S,5R)-5-(6-amino-2-fluoro-9H-purin-9-yl)-2-ethynyl-3-hydroxytetrahydrofuran-2-yl)methyl octadecylcarbamate]",> 25 µM,> 25000 nM,–
"C#C[C@]1(COC(=O)NCCCCCCCC)O[C@@H](n2cnc3c(N)nc(F)nc32)C[C@@H]1O [Example 2, ((2R,3S,5R)-5-(6-amino-2-fluoro-9H-purin-9-yl)-2-ethynyl-3-hydroxytetrahydrofuran-2-yl)methyl octylcarbamate]",> 25 µM,> 25000 nM,–
"C#C[C@]1(COC(=O)NCCCCCCCCCCCC)O[C@@H](n2cnc3c(N)nc(F)nc32)C[C@@H]1O [Example 3, ((2R,3S,5R)-5-(6-amino-2-fluoro-9H-purin-9-yl)-2-ethynyl-3-hydroxytetrahydrofuran-2-yl)methyl dodecylcarbamate]",2.01 µM,8170 nM,–
"C#C[C@]1(COC(=O)NCCCCC)O[C@@H](n2cnc3c(N)nc(F)nc32)C[C@@H]1O [Example 4, ((2R,3S,5R)-5-(6-amino-2-fluoro-9H-purin-9-yl)-2-ethynyl-3-hydroxytetrahydrofuran-2-yl)methyl pentylcarbamate]",2.66 µM,> 25000 nM,–
"C#C[C@]1(COC(=O)NC)O[C@@H](n2cnc3c(N)nc(F)nc32)C[C@@H]1O [Example 5, ((2R,3S,5R)-5-(6-amino-2-fluoro-9H-purin-9-yl)-2-ethynyl-3-hydroxytetrahydrofuran-2-yl)methyl methylcarbamate]",15.4 µM,> 25000 nM,–
"C#C[C@]1(COC(=O)NC(C)C)O[C@@H](n2cnc3c(N)nc(F)nc32)C[C@@H]1O [Example 6, ((2R,3S,5R)-5-(6-amino-2-fluoro-9H-purin-9-yl)-2-ethynyl-3-hydroxytetrahydrofuran-2-yl)methyl isopropylcarbamate]",0.56 µM,1080 nM,–
"C#C[C@]1(COC(=O)N(CC)CC)O[C@@H](n2cnc3c(N)nc(F)nc32)C[C@@H]1O [Example 7, ((2R,3S,5R)-5-(6-amino-2-fluoro-9H-purin-9-yl)-2-ethynyl-3-hydroxytetrahydrofuran-2-yl)methyl diethylcarbamate]",1.28 µM,2410 nM,–
"C#C[C@]1(COC(=O)NC(C)(C)C)O[C@@H](n2cnc3c(N)nc(F)nc32)C[C@@H]1O [Example 8, ((2R,3S,5R)-5-(6-amino-2-fluoro-9H-purin-9-yl)-2-ethynyl-3-hydroxytetrahydrofuran-2-yl)methyl tert-butylcarbamate]",0.142 µM,1130 nM,–
"C#C[C@]1(COC(=O)OC(COC(=O)CCCCCCCC)COC(=O)CCCCCCCC)O[C@@H](n2cnc3c(N)nc(F)nc32)C[C@@H]1O [Example 9, 2-(((((2R,3S,5R)-5-(6-amino-2-fluoro-9H-purin-9-yl)-2-ethynyl-3-hydroxytetrahydrofuran-2-yl)methoxy)carbonyl)oxy)propane-1,3-diyl dinonanoate]",0.0049 µM,22.1 nM,–
